Reference: a melting point compilation (Tetko et al.; mined from patent text by program, amines drawn as free bases though some values may be those of a salt)

Row | Structure (SMILES) | melting point [°C]
1 | O=C(Nc1nccs1)c1nc(-c2cccc3ccccc23)[nH]c1-c1ccc(C(F)(F)F)cc1 | 222 to 223
2 | O=C(O)c1cc(S(=O)(=O)N2CCCCC2)c(Cl)cc1Cl | 200 to 205
3 | CCCCCCCCCCCCCCCCCCOc1cccc(C(=O)C(=O)O)c1 | 77 to 79
4 | COc1ccc2c(cc3n2CCc2ccccc2-3)n1 | 179 to 180
5 | CCCCN(CCCC)C(=O)C1=NN(c2ccccc2)C(C(N)=O)=NN1c1ccccc1 | 160 to 161
6 | CCSc1ccc(C(=O)O)c(C(F)(F)F)c1 | 134
7 | Cc1ccc(S(=O)(=O)N[C@@H](C)C(=O)N[C@@H](Cc2ccccc2)C(=O)OCc2ccccc2)cc1 | 109 to 110
8 | CCOC(=O)C1=C(C)NN=C(CC)C1c1ccc(Cl)cc1 (stereo not given) | 111
9 | CS(=O)c1ccc(-c2nn(CC3CC3)c(=O)cc2-c2ccc(Cl)cc2)cc1 (stereo not given) | 152
10 | CC(=O)SCC(=Cc1cccc2ccccc12)C(=O)NCCC(=O)OCc1ccccc1 | 78
11 | Nc1nnc(-c2ccc(C(F)(F)F)cc2)cc1C(F)(F)F | 186 to 190
12 | Cc1ccc(S(=O)(=O)n2cc([C@@H]3C[C@H]3C=O)c3cc(C#N)ccc32)cc1 (relative stereo) | 165 to 167
13 | Cn1nc(N)nc1NCCCO | 139 to 140
14 | Nc1nc2ccc(S(=O)(=O)n3c(CCC(=O)O)cc4cc(C(F)(F)F)ccc43)cc2s1 | > 250
15 | COC(=O)C1Oc2ccc(OC)cc2C(C)(c2ccccc2)O1 (stereo not given) | 70 to 71
16 | O=[PH](c1ccc(Cl)cc1)c1ccc(Cl)cc1 | 124
17 | CC(=O)C=Cc1c(C)c(C)c2c(c1C)CC(C)(C)O2 | 86 to 87
18 | Cc1ccc(S(=O)(=O)n2ccc3cc(Br)ccc32)cc1 | 135
19 | CCCC[C@@H](NC(=O)[C@H](Cc1ccc(O)cc1)NC(=O)OC(C)(C)C)C(=O)NCC(=O)OCc1ccccc1 | 122
20 | CC(=O)N[C@@H](CSC(=O)c1ccccc1)C(=O)NCCSC(=O)C(C)(C)C | 133 to 134
21 | COc1cc(C(=O)O)ccc1-c1ccc(-c2ccccc2)c(-c2ccc3c(c2)C(C)(C)CCC3(C)C)c1 | 144 to 146
22 | Cn1c(-c2ccc(N3CCOCC3)cc2)cnc1[C@H](Cc1ccccn1)N(C=O)c1cc2cc(F)ccc2o1 | 130 to 132
23 | N#Cc1ccccc1OCCCN1CCC(NC(=O)C2CCCCC2)CC1 | 110 to 112
24 | CC(=O)c1ccccc1N(C)S(C)(=O)=O | 98 to 99

Row | Structure (SMILES) | melting point [°C]
25 | CNC(=O)O/N=C(/SC)C(F)(F)F | 83 to 85
26 | O=C1OCCN1c1cc(-c2ccnc(Nc3cccc(Cl)c3)n2)ccn1 | 162 to 163
27 | COC(=O)c1cccc2c1ccn2C | 194 to 195
28 | CC(C)(C)c1ccc2c(c1)C(C(=O)Nc1c(Cl)cccc1Cl)c1ccccc1CO2 (stereo not given) | 115 to 117
29 | O=C(CN1CCCC1)Nc1ccc2c(c1)C(=O)c1cc(NC(=O)CN3CCCC3)ccc1C2=O | 201
30 | CCN1C(=O)C(C)(C)C(=O)N(C)c2cc(OCCCn3cc(I)c(=O)c4ccccc43)ccc21 | 97 to 106
31 | COc1cc(OCC(O)CCl)cc2oc3ccccc3c(=O)c12 (stereo not given) | 107
32 | CCOC(=O)c1cc2cc([N+](=O)[O-])cc(CC)c2o1 | 114 to 116
33 | Cn1c(-c2ccc(OCC(O)CNC(C)(C)C)cc2)cc2ccccc2c1=O (stereo not given) | 130 to 132
34 | CSc1cnc2cc(-c3cccc(Cl)c3)sc2c1O | > 300
35 | Cc1ccc(C(=O)NC(C)C)c(Nc2ccc3cn[nH]c3c2)n1 | 212 to 214
36 | O=S(=O)(c1cccc(-c2cc(-c3nc(-c4ccc(C(F)(F)F)cc4)cc(C(F)(F)F)n3)ccn2)c1)N(CCO)CCO | 186
37 | CCOC(=O)C(=C1CCCN1C)c1ccc(OC)cc1 | 81 to 82
38 | O=CN1C(=O)NC(=O)C12C(=O)N(Cc1ccc(Cl)c(Cl)c1)c1ccccc12 (stereo not given) | 244 to 246
39 | COC(=O)CN1CCN2C(Cc3cc(OC)c(OC)cc3C2c2ccccc2)C1 (stereo not given) | 110 to 113
40 | O=C(O)CCCCCCCCCCCc1ccccc1 | 47 to 48
41 | CCOC(=O)c1nnc(CNC(=O)c2cc3ccccc3[nH]2)n1-c1sc(CC)cc1C(=O)c1ccccc1Cl | 233 to 235
42 | CC1=NC(=O)C(Cc2c[nH]c3ccccc23)N(O)C1=O (stereo not given) | 166 to 168
43 | CC(Oc1ncn(-c2ccccc2)n1)C(=O)OCc1ccccc1 (stereo not given) | 78 to 80
44 | CN1C(=O)CN2CC(CCl)OC2(c2ccccc2)c2cc(Cl)ccc21 (stereo not given) | 140 to 142
45 | COc1cc(CC#N)c(OC)c(C)c1C | 98 to 99
46 | Cc1c(S(=O)c2ccc([N+](=O)[O-])cc2)cc(C(C)(C)C)c(O)c1C(=O)O (stereo not given) | 201 to 202
47 | COc1cc(F)ccc1C(F)C1CCCCn2c1nc(-c1ccncn1)cc2=O (racemic) | 228 to 230
48 | CCCc1nc2c(N)nc3cc(-c4cncc(CO)c4)ccc3c2n1CC(C)(C)O | 225 to 226

Row | Structure (SMILES) | melting point [°C]
49 | COc1cc2c(cc1O)CCN(C(C)=O)C2 | 139 to 140
50 | CC1CN(c2cc3ccccc3c(=O)[nH]2)CC(C)N1 (stereo not given) | 208 to 210
51 | CC#CCOc1ccc(S(=O)(=O)N(C)c2c(C(=O)OCC)cnc3onc(C)c23)cc1 | 85 to 90
52 | COc1cccc(OC)c1Cc1c(O)ncnc1O | > 245
53 | Nc1nc2ccc(C(F)(F)C(F)(F)F)cc2s1 | 100
54 | CCOC(=O)c1c(N2CCN(C=O)CC2)c2cc(C)ccc2n(-c2ccccc2)c1=O | 240
55 | CSc1ccc(-c2cnc3ccc(-c4nnc(C)o4)cn23)cc1 | 180 to 181
56 | ClCc1nc(Cl)c2ccsc2n1 | 66 to 68
57 | COc1ccc(S(=O)(=O)N2CCc3cccc(-c4cccc(F)c4)c32)cc1 | 180 to 181
58 | Cc1ccc2c(c1)C(NC(=O)CCCN1CCN(c3ccc(F)cc3)CC1)c1ccccc1CS2(=O)=O (stereo not given) | 163 to 165
59 | CN(C)CCN(C(=O)c1cc([N+](=O)[O-])ccc1Br)c1ccnc2cc3c(cc12)OCO3 | 204 to 205
60 | CC(C)NC(=O)N1CCc2[nH]cnc2C1C1CCCCC1 (stereo not given) | 254
61 | O=[N+]([O-])c1c(Br)c(Br)cc2c1OC(F)(F)C(F)(F)O2 | 91 to 92
62 | CCCCCCCCOc1ccc(C(=O)OC(C)c2cc3c(s2)-n2c(C)nnc2CN=C3c2ccccc2Cl)cc1 (stereo not given) | 56 to 61
63 | CC(=O)SCCC(=O)N1CC[C@H](SC(C)=O)[C@H]1C(=O)O | 145 to 148
64 | CCc1c(-c2ccc(OC)cc2)c2c3c(c4cc(OC)cc1n42)C(=O)OC3=O | 249 to 251
65 | C=CCOc1cn(C)c2cc(OCC(F)(F)F)ccc2c1=O | 120
66 | COC(=O)c1ccccc1OS(=O)(=O)N(C)C | 75.5 to 76.5
67 | CCOC(=O)c1ccc(-c2ccc(OCCCI)c(-c3ccc4c(c3)C(C)(C)CCC4(C)C)c2)cc1 | 118
68 | CN1Cc2ccccc2C(O)(Cc2ccc(Cl)cc2F)C1 (stereo not given) | 113 to 116
69 | CC1=NC(NC(=O)Nc2cccc(C)c2)C(=O)N(CC(=O)N2CC3CCC(CC3)C2)c2c(C)cccc21 (stereo not given) | 177 to 179
70 | COc1ccc(-c2cnc3[nH]cc(C(=O)NC4CCN(C(C)=O)C4)c3n2)cc1OC (stereo not given) | 211 to 212
